Data taken from patent US20230233617A1, “METHODS FOR DIFFERENTIATING STEM CELLS INTO DOPAMINERGIC PROGENITOR CELLS” (JZ CELL TECHNOLOGIES AB, priority 2020, published 2023).

Experiments:
Type in all cases: cell-based, human
[1] = tested on: CYP26A1; assay: CYP26A1 expression in hPSC cultures; conditions: 50-1,000 nM RA, dSMADi
Procedure: (d) Effect of RA concentration (50, 100, 300, 500 and 1,000 nM RA) on CYP26A1 expression in 1 DDC cultures differentiated in dSMADi-condition. (e) Temporal expression profile of CYP26A1 in cultures differentiated in dSMADi and pulsed with no RA or 300, 500 or 1,000 nM of RA for 2 days. […] (g) Relative gene expression of indicated genes in 9 DDC cultures differentiated in RA^1D+SAG condition and in the presence of different concentrations of the CYP26 inhibitor R115866. […] (c-e) values, mean±S.D.
Total RNA was isolated using Quick-RNA Mini Prep Plus kit (Zymo Research). cDNA was prepared using Maxima First Strand cDNA synthesis kit (Thermo Fisher Scientific). Quantitative Real-Time PCR was performed in a 7500 Fast Real Time PCR system thermal cycler using Fast SYBR Green PCR Master Mix (Applied Biosystems). Analysis of gene expression was performed using the 2-ΔΔCt method, where relative gene expression was normalized to GAPDH transcript levels.

[2] = tested on: hPSC-derived NSCs; assay: Ventral regional identity of hPSC-derived NSCs at 9 DDC in dSMADi+SAG conditions (NKX2.1, LMX1A, PHOX2B, NKX2.2); conditions: 9 DDC
[3] = tested on: hESCs; assay: Conversion of hPSCs into NSCs (OCT4, SOX1, PAX6 expression) in dSMADi cultures
Procedure: To explore the activities of RA on hESCs directed to adopt a neural fate in response to dSMADi^14, we treated cultures with 200 nM all-trans RA for the first 1, 2, 3 or 4 days of differentiation (RA^1D, RA^2D, RA^3D, RA^4D) (FIG. 1a) and monitored fate and identity of cells at different stages by immunoblotting, quantitative immunocytochemistry, qPCR or RNA-sequencing (RNA-seq). […] Induction of SOX1 and PAX6 at low levels occurred at 3 DDC (FIG. 1b). OCT4 and SOX1 were co-expressed by cells between 3-4 DDC (FIG. 1b, c; FIG. 7a (Supplementary FIG. 1a)) showing that the conversion of hPSCs into NSCs in response to dSMADi-treatment encompass a protracted time-window over which expression of pluripotency- and neural-specific genes overlap. […] By 7 DDC, SOX1 and neural marker NESTIN were expressed at similar levels in dSMADi-only and in dSMADi+RA^2D cultures (FIG. 1d). […] Endodermal or mesodermal lineage markers were not expressed (FIG. 7b (Supplementary FIG. 1b)). In dSMADi+RA^2D conditions, prompt suppression of OCT4 and fast upregulation of SOX1 was attained within a concentration range of RA between 50-500 nM (FIG. 1g). […] Thus, combining dSMADi treatment with exposure of hPSCs to RA for 48 hours or longer promotes a rapid and switch-like transition from pluripotency into a NSC-state.
80-90% confluent PSCs cultures were rinsed twice with PBS, treated with EDTA (0.5 mM in PBS) for 5-7 min, and resuspended into single cell suspension in PBS. Cells were spin down at 400 g and resuspended in N2B27 medium (DMEM/F12: Neurobasal (1:1), 0.5×N2 and 0.5×B27 (plus vitamin A) supplements, 1×nonessential amino acids, 1% GlutaMAX, 55 μM β-mercaptoethanol-all from Thermo Fisher Scientific) containing 5 μM SB431542 (Miltenyi Biotech) and 2.5 μM DMH1 (Santa Cruz Biotech) (dual SMAD inhibition), and 10 μM ROCK inhibitor (for the first 48 hours after seeding). Cells were seeded on VTN (2 μg/cm^2) and Fibronectin (FN) (2 μg/cm^2) (Sigma) coated surface at a density of 60,000-80,000 cells/cm^2 for RA- and RA-analogues based experiments, and 20,000 cells/cm^2 for CHIR99021 experiments. […]

CC1=C(/C=C/C(C)=C/C=C/C(C)=C/C(=O)O)C(C)(C)CCC1 [RA, all-trans retinoic acid]
CYP26A1 expression [1]: concentration-dependent activation and adaptive temporal expression of CYP26A1 | ventral identity of NSCs ([2]; RA^1D+SAG): expressed the FB-specific markers FOXG1, SIX3, SIX6, and LHX2 | identity of NSCs ([2]; RA^2D+SAG, 100 nM or 800 nM RA): LMX1A^+/NKX2.1^− NSCs were generated but at lower numbers | RA concentration at which the vast majority of NSCs expressed LMX1A+/NKX2.1− vMB-identity ([2]; RA^2D+SAG): 200 to 400 nM | ventral identity of NSCs ([2]; RA^2D+SAG): LMX1A^+/LMX1B^+/FOXA2^+/OTX2^+ identity characteristic of vMB mDA neuron progenitors | ventral identity of NSCs ([2]; RA^3D+SAG or RA^4D+SAG): expressed HOX genes and the ventral markers NKX2.2, PHOX2B, NKX6.1, and NKX6.2 typical of cranial motor neuron (MN) progenitors of the HB | time at which the 48 hour RA-pulse must be initiated for effective induction of vMB NSC identity ([2]; dSMADi+SAG): 0-2 DDC | rapid OCT4 suppression and fast upregulation of SOX1 ([3]; 200 nM RA for one day (dSMADi+RA^1D)): not sufficient to promote rapid OCT4 suppression nor fast upregulation of SOX1 | OCT4 expression ([3]; dSMADi and 200 nM RA for two days or longer): expression of OCT4 had essentially been extinguished by 3 DDC | concentration range of RA giving prompt suppression of OCT4 and fast upregulation of SOX1 ([3]; dSMADi+RA^2D, 3 DDC): 50 to 500 nM
